Assay results as given in ChEMBL document CHEMBL1151126, “Studies on inhibitors of skin tumor promotion, III. Inhibitory effects of isoflavonoids from Wisteria brachybotrys on Epstein-Barr virus activation” (J Nat Prod, 1988).
Activity calls are given as the source filed them. The calls are words filed in the database; no cut-off is given here.

Columns and labels:
[1] = organism: Mus musculus; assay: Displacement of [3H]TPA from TPA receptor in ICR mouse epidermal particulate fraction by Me2CO filter method
[2] = test system: HeLa; assay: Inhibition of TPA-stimulated [32P] incorporation into phospholipids in human HeLa cells at 50 uM after 1 hr; format: functional
[3] = test system: Raji; assay: Inhibition of EBV-early antigen activation in human Raji cells assessed as early antigen activation at 320 nM; format: cell-based; parameters: scale not given: the % may be the effect or the level left; conditions: human gammaherpesvirus 4
[4] = test system: HeLa; assay: Cytotoxicity in human HeLa cells assessed as effect on cell viability at 50 uM after 1 hr; format: cell-based
[5] = test system: Raji; assay: Inhibition of 12-O-tetradecanoylphorbol-13-acetate-induced EBV-early antigen activation in human Raji cells assessed as early antigen induction at 10000 molar ratio after 48 hrs by indirect immunofluorescence technique relative to TPA; format: cell-based; parameters: scale not given: the % may be the effect or the level left; conditions: human gammaherpesvirus 4
[6] = test system: Raji; assay: Inhibition of 12-O-tetradecanoylphorbol-13-acetate-induced EBV-early antigen activation in human Raji cells assessed as early antigen induction at 100 molar ratio after 48 hrs by indirect immunofluorescence technique relative to TPA; format: cell-based; parameters: scale not given: the % may be the effect or the level left; conditions: human gammaherpesvirus 4
[7] = Cytotoxicity against human Raji cells assessed as cell viability at 1000 molar ratio; format: cell-based; conditions: read-out: Activity
[8] = Cytotoxicity against human Raji cells assessed as cell viability at 10000 molar ratio; format: cell-based; conditions: read-out: Activity
[9] = test system: HeLa; assay: Cytotoxicity in human HeLa cells assessed as decrease in cell number at 50 uM after 1 hr; format: cell-based
[10] = test system: Raji; assay: Inhibition of 12-O-tetradecanoylphorbol-13-acetate-induced EBV-early antigen activation in human Raji cells assessed as early antigen induction at 1000 molar ratio after 48 hrs by indirect immunofluorescence technique relative to TPA; format: cell-based; parameters: scale not given: the % may be the effect or the level left; conditions: human gammaherpesvirus 4
[11] = Cytotoxicity against human Raji cells assessed as cell viability at 10 molar ratio; format: cell-based; conditions: read-out: Activity
[12] = Cytotoxicity against human Raji cells assessed as cell viability at 100 molar ratio; format: cell-based; conditions: read-out: Activity
[13] = test system: Raji; assay: Inhibition of 12-O-tetradecanoylphorbol-13-acetate-induced EBV-early antigen activation in human Raji cells assessed as early antigen induction at 10 molar ratio after 48 hrs by indirect immunofluorescence technique relative to TPA; format: cell-based; parameters: scale not given: the % may be the effect or the level left; conditions: human gammaherpesvirus 4

SMILES	Activity [1]	inhibition at 50 µM [2]	Activity [3]	Activity [4]	Activity [5]	Activity [6]	viability at 1000 molar ratio [7]	viability at 10000 molar ratio [8]	Activity [9]	Activity [10]	viability at 10 molar ratio [11]	viability at 100 molar ratio [12]	Activity [13]
COc1ccc(-c2coc3cc(OC(C)=O)c(OC)cc3c2=O)cc1	inactive	33.9%	2.1%	Non-toxic	0%	42.3%	> 80%	80%	Non-toxic	6%	100%	> 80%	72.7%
COc1ccc(-c2coc3cc(OC(C)=O)ccc3c2=O)cc1		40.2%	0%	Non-toxic	0%	95.2%	> 80%	80%	Non-toxic	15.2%	100%	100%	100%
C=C[C@]1(C)CC[C@@](C)(C(C)C)c2cc3c4c(c[nH]c4c21)C[C@@H](CO)NC(=O)[C@H](C(C)C)N3C	Active												
CCCCCCCCCCCCCC(=O)O[C@@H]1[C@@H](C)[C@@]2(O)[C@@H](C=C(CO)C[C@]3(O)C(=O)C(C)=C[C@@H]23)[C@@H]2C(C)(C)[C@]12OC(C)=O	Active												
COc1ccc(-c2coc3cc(O)c(OC)cc3c2=O)cc1 [CASTANIN]	inactive	16.4%	34%	Non-toxic	0%	75.8%	> 80%	80%	Non-toxic	36.4%	100%	> 80%	100%
COc1ccc(-c2coc3cc(O)ccc3c2=O)cc1 [FORMONONETIN]	inactive	34.5%	0%	Non-toxic	0%	92.6%	> 80%	20%	Non-toxic	63.6%	100%	> 80%	100%
COc1ccc(-c2coc3cc(O[C@@H]4O[C@H](CO)[C@@H](O)[C@H](O)[C@H]4O)ccc3c2=O)cc1 [ONONIN]		12.3%	2%	Non-toxic	39.3%	100%	> 80%	80%	Non-toxic	76%	100%	100%	100%
COc1ccc(-c2coc3cc(O[C@@H]4O[C@H](CO)[C@@H](O)[C@H](O)[C@H]4O)c(OC)cc3c2=O)cc1 [WISTIN]		0%	0%	Non-toxic	15.2%	86.6%	> 80%	50%	Non-toxic	78.5%	100%	> 80%	100%
